# Results taken from US20060110790A1, “Expression system for large functional proteins” (priority 2002, published 2006).
# Target: T1, individually expressed C half of ABCR (Homo sapiens, UniProt P78363)
# T1 construct: The cDNAs coding for the N-half (amino acids 1-1325) and C-half (amino acids 1326-2273) of ABCR; made in house; host or cells: COS-1 cells
# T1 sequence (P78363 1326-2273): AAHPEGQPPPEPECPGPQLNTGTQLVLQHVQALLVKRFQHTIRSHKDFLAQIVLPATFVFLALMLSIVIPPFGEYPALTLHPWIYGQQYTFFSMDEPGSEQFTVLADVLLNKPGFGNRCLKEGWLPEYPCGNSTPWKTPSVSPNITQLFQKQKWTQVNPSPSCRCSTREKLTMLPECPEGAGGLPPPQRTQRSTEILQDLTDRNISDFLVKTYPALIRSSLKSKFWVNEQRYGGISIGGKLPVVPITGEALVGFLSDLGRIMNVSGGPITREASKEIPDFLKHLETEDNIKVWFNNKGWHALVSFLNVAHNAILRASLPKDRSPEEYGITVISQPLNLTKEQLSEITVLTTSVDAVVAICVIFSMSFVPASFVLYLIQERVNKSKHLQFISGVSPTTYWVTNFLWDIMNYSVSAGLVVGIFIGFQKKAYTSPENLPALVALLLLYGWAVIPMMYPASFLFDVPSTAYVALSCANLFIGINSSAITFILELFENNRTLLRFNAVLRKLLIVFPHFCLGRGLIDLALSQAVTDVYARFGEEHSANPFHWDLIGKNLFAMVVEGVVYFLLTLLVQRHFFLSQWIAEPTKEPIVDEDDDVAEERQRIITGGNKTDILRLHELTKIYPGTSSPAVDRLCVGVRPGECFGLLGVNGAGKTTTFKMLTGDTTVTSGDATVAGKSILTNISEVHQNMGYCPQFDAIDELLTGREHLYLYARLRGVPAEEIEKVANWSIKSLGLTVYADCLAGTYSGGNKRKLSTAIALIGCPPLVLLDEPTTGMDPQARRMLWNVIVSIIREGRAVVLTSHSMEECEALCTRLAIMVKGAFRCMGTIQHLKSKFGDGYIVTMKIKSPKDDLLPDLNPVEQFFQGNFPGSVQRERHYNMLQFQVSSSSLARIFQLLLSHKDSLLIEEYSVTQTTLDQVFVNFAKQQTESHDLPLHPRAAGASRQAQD
# Assay: Retinal-stimulated ATPase activity of purified protein reconstituted in lipid vesicles
# Assay type: biochemical
# Conditions: individually expressed in COS-1 cells, 50 μM [α32P]ATP
# Protocol: Membranes (from two 10 cm dishes) were solubilized in 0.5 ml of 1% Triton-X100 in Buffer A (140 mM NaCl, 20 mM Tris-HCl, pH 7.4) for 20 min on ice. For ATPase assays, the membrane preparation step was omitted and the cell suspension was solubilized directly in Buffer B (10 mg/ml soybean phospholipids, 10% glycerol, 1 mM dithiothreitol, 100 mM NaCl, 3 mM MgCl2, 50 mM NaHEPES, pH 7.4) containing 18 mM CHAPS. The supernatant after a 10 min centrifugation at 40,000 rpm (TLA100.4 rotor) was mixed with 50 μl Rim3F4 Sepharose 2B for 1 h at 4° C. The beads were washed 6 times in Buffer A containing 0.2% Triton X-100 or Buffer B containing 10 mM CHAPS and eluted with 4% SDS (for electrophoresis) or 0.2 mg/ml Rim3F4 peptide (for reconstitution and determination of ATPase activity). Purified protein (24 μl) was incubated with 6 μl of 50 mg/ml lipid (1:1 mixture of dioleoylphosphatidylethanolamine and brain polar lipid, by weight) and 3 μl n-octylglucoside for 30 min on ice. The mixture was diluted rapidly with 200 μl of Buffer C (1 mM dithiothreitol, 140 mM NaCl, 25 mM NaHEPES, pH 7.4) and passed through a 200 μl Extracti-gel column (Pierce). The flow-through containing the reconstituted protein was used for determination of ATPase activity.
# ATPase activity was measured as described previously (Ahn, J., Wong, J. T., and Molday, R. S. (2000) J Biol Chem 275(27), 20399-405) using 50 μM [α^32P]ATP and thin layer chromatography. The all-trans retinal concentration was determined spectrophotometrically (λ383 nm=42.88 mM^−1 cm^−1). Protein concentration was estimated from the eluate before reconstitution by laser densitometry of Coomassie blue stained gels using bovine serum albumin as a standard. […] Direct protein measurements after reconstitution by densitometry of Western blots was about half of that in the eluate. […]
# ATPase Activity of Expressed N and C Halves—The basal and retinal activated ATPase activity of full-length ABCR and the N and C halves individually or co-expressed in COS-1 cells was determined after immunoaffinity purification and reconstitution into lipid vesicles. […]
smiles,measurement,value
CC1=C(/C=C/C(C)=C/C=C/C(C)=C/C=O)C(C)(C)CCC1 [all-trans retinal],stimulation of ATPase activity,not stimulated
